≈ marks a conversion by molar mass, not a printed value.
Assays:
HRV-1A and HRV-39 = assay: Anti-rhinovirus activity against HRV-1A and HRV-39; conditions: in words
Rhinovirus 39 = assay: Anti-rhinovirus activity, cytopathic effect inhibition / neutral red dye uptake, type 39; type: cell-based; conditions: Table I, WI38 cells, 33° C., 3-4 days; for EC50: Enterovirus, WI-38, read-out: MIC50 Rhinovirus 39
WI38 cells = assay: Toxicity to WI38 cells (change in morphology in / growth inhibition of 25% of the cells); type: cell-based; conditions: Table I; concentration with change in morphology in 25% of WI38 cells
Rhinovirus 1A = assay: Anti-rhinovirus activity, cytopathic effect inhibition / neutral red dye uptake, type 1A; type: cell-based; conditions: Table I, WI38 cells, 33° C., 3-4 days, NA = Not active; for EC50: Enterovirus, WI-38, read-out: MIC50 Rhinovirus 1A

Compound | inhibitory activity against HRV-1A and HRV-39 in vitro (HRV-1A and HRV-39) | MIC50 Rhinovirus 39 (Rhinovirus 39) | Toxicity (WI38 cells) | MIC50 Rhinovirus 1A (Rhinovirus 1A) | EC50 (Rhinovirus 39) | EC50 (Rhinovirus 1A)
Cc1cnsc1CCCCCCOc1cccc2ccccc12 | remarkably inhibitory activity |  |  |  |  | 
5-[7-(2-Naphthyl)oxyheptyl]-3-methylthiazole [Compound 18] |  | 25 µg/mL | > 50 µg/mL | 25 µg/mL |  | 
5-[7-(fluoren-9-yl)oxyheptyl]-3-methylthiazole | remarkably inhibitory activity |  |  |  |  | 
Cc1cc(CCCCCCCOc2ccc(-n3cncn3)cc2)on1 [Compound 3, 5-{7-[4-(1,2,4-triazol-1-yl)phenoxy]heptyl}-3-methylisoxazole] | remarkably inhibitory activity |  | 750 µg/mL |  | 50 µg/mL (≈ 147 µM) | 50 µg/mL (≈ 147 µM)
Cc1cc(CCCCCCCON2C(=O)COc3c2ccc2ccccc32)on1 [Compound 6, 5-[7-(2,3-dihydro-3-oxo-4H-napth[1,2-b]-1,4-oxazin-4-yl)oxyheptyl]-3-methylisoxazole] | remarkably inhibitory activity |  | > 50 µg/mL |  | 50 µg/mL (≈ 127 µM) | 50 µg/mL (≈ 127 µM)
Cc1cc(CCCCCCCOc2cc(C)c3ccccc3n2)on1 [Compound 10, 5-[7-(4-methylquinolin-2-yl)oxyheptyl]-3-methylisoxazole] |  |  | 50 µg/mL |  | 25 µg/mL (≈ 73.9 µM) | 25 µg/mL (≈ 73.9 µM)
Cc1cc(CCCCCCCOc2nc3ccccc3[nH]2)on1 [Compound 11, 5-[7-(benzimidazol-2-yl)oxyheptyl]-3-methylisoxazole] |  |  | 50 µg/mL |  | 10 µg/mL (≈ 31.9 µM) | 25 µg/mL (≈ 79.8 µM)
Cc1cc(CCCCCCCOC23CC4CC(CC(C4)C2)C3)on1 [Compound 12, 5-[7-(Adamantanol-1-yl)oxyheptyl]-3-methylisoxazole] |  |  | 50 µg/mL |  | 10 µg/mL (≈ 30.2 µM) | 25 µg/mL (≈ 75.4 µM)
Cc1cc(CCCCCCCOc2ccc3ccccc3c2)on1 [Compound 13, 5-[7-(2-naphthyl)oxyheptyl]-3-methylisoxazole] | remarkably inhibitory activity |  | 50 µg/mL |  | 10 µg/mL (≈ 30.9 µM) | 25 µg/mL (≈ 77.3 µM)
Cc1csc(CCCCCCCOc2cc(C)nc3ccccc23)n1 [Compound 16] | remarkably inhibitory activity |  | 25 µg/mL |  | 5 µg/mL (≈ 14.1 µM) | 
Cc1cc(OCCCCCCc2sncc2C)c2ccccc2n1 [Compound 20, 5-[6-(2-methylquinolin-4-yl)oxyhexyl]-4-methylisothiazole] | remarkably inhibitory activity |  |  |  |  | 
Cc1cnsc1CCCCCCOc1ccc2ccccc2c1 [Compound 21, 5-[6-(2-napthyl)oxyhexyl]-4-methylisothiazole] |  |  | 50 µg/mL |  | 10 µg/mL (≈ 30.7 µM) | 25 µg/mL (≈ 76.8 µM)
Cc1cnsc1CCCCCCOc1cccc2ccccc12 [Compound 22, 5-[6-(1-napthyl)oxyhexyl]-4-methylisothiazole] |  |  | > 50 µg/mL |  | 25 µg/mL (≈ 76.8 µM) | 25 µg/mL (≈ 76.8 µM)
Cc1cc(OCCCCCCc2ccns2)c2ccccc2n1 [Compound 26, 5-[6-(2-methylquinoline-4-yl)oxyhexyl]isothiazole] | remarkably inhibitory activity |  |  |  |  | 
Cc1cc(CCCCCCCOC2c3ccccc3-c3ccccc32)on1 [Compound 29, 5-[7-(fluorene-9-yloxy)-heptyl]-3-methylisoxazole] |  |  | > 50 µg/mL |  | 25 µg/mL (≈ 69.2 µM) | 
c1ccc(-n2nccc2CCCCCCOc2cccc3ccccc23)cc1 [Compound 33, 5-[6-(1-naphthyl)oxyhexyl]-1-phenylpyrazole] | remarkably inhibitory activity |  |  |  |  | 
Cc1cc(OCCCCCCc2c(Cl)cnn2-c2ccccc2)c2ccccc2n1 [Compound 35, 4-chloro-5-[6-(2-methylqinolin-4-yl)oxyhexyl]phenylpyrazole] | remarkably inhibitory activity |  |  |  |  | 
